Read-outs that look alike come from different tables or passages of the source.
Key:
[1] = system: P. aeruginosa PAK; assay: microbe, parasite or virus in culture; set-up: MICa: MIC of the antibiotic / MICac: MIC of the antibiotic in the combination: unit not given beside the values; details: strain PAK
Protocol: (§1) The MIC tests were performed in triplicate using broth microdilution in accordance with Clinical and Laboratory Standards Institute (CLSI) recommendations (http://iacld.ir/DL/public/CLSI-2018-M100-S28.pdf). Briefly, drugs were two-fold diluted in MHB and mixed with an equal volume of bacterial suspensions containing approximately 1 × 10^6 CFU/mL in 96-well microliter plate. After 18 h incubation at 37 °C, the MIC values were defined as the lowest concentrations of antibiotics with no visible growth of bacteria. […] Otherwise, 1/4 MIC of the peptide was used in the combination. […] If needed, membrane compounds PG, PE, PC, CL or LPS, or membrane stabilizers MgCl2 or CaCl2, or efflux pumps inhibitor PAβN were added to the broth medium to clarify the effect of other substances on the synergy between peptide and antibiotics. All the tests were performed in triplicate.
(§2) The fractional inhibitory concentration (FIC) indices were calculated using the previously described formula FICI = FICa + FICb = MICac/MICa + MICbc/MICb. The FICI was interpreted according to EUCAST [65] as follows: synergistic, FICI≤0.5; additive, 0.5<FICI≤1; indifferent, 1<FICI<2; antagonistic, FICI ≥2. For the FICI calculations, twice the highest concentration tested was used in the cases where the MIC was not reached.

[2] = system: P. aeruginosa NR-31041; assay: microbe, parasite or virus in culture; set-up: MICa: MIC of the antibiotic / MICac: MIC of the antibiotic in the combination: unit not given beside the values; details: strain NR-31041
Protocol: as §1, §2

[3] = system: P. aeruginosa NR-31040; assay: microbe, parasite or virus in culture; set-up: MICa: MIC of the antibiotic / MICac: MIC of the antibiotic in the combination: unit not given beside the values; details: strain NR-31040
Protocol: as §1, §2

[4] = system: P. aeruginosa PA14; assay: microbe, parasite or virus in culture; set-up: MICa: MIC of the antibiotic / MICac: MIC of the antibiotic in the combination: unit not given beside the values; details: strain PA14
Protocol: as §1, §2

[5] = system: P. aeruginosa ATCC27853; assay: microbe, parasite or virus in culture; set-up: MICa: MIC of the antibiotic / MICac: MIC of the antibiotic in the combination: unit not given beside the values; details: strain ATCC27853
Protocol: as §1, §2

[6] = system: P. aeruginosa AUMC-Pa-6; assay: microbe, parasite or virus in culture; details: strain AUMC-Pa-6
In short: (§3)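 Values are lowest concentrations showing no visible growth after 18 h at 37 °C. Drugs were serially halved in MHB and combined with equal volumes of a roughly 1 × 10^6 CFU/mL suspension, following CLSI guidance, in triplicate.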

[7] = system: P. aeruginosa AUMC-Pa-5; assay: microbe, parasite or virus in culture; details: strain AUMC-Pa-5
In short: as §3

[8] = system: P. aeruginosa AUMC-Pa-4; assay: microbe, parasite or virus in culture; details: strain AUMC-Pa-4
In short: as §3

[9] = system: P. aeruginosa PAO1; assay: microbe, parasite or virus in culture; details: S3 Table, PAO1
In short: as §3

[10] = system: P. aeruginosa AUMC-Pa-3; assay: microbe, parasite or virus in culture; details: strain AUMC-Pa-3
In short: as §3

[11] = system: P. aeruginosa HM-214; details: strain HM-214; antibiotic + D-11 (MICb/MICbc 128/4)
Protocol: as §1, §2

[12] = system: P. aeruginosa AUMC-Pa-1; details: strain AUMC-Pa-1; antibiotic + D-11 (MICb/MICbc 128/4)
Protocol: as §1, §2

[13] = system: P. aeruginosa AUMC-Pa-2; details: strain AUMC-Pa-2; antibiotic + D-11 (MICb/MICbc 64/4)
Protocol: as §1, §2

[14] = system: clinical P. aeruginosa isolates; assay: microbe, parasite or virus in culture; details: Pseudomonas aeruginosa, 18 h, antibiotic alone
In short: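 MIC is the lowest drug concentration showing no visible growth after 18 h at 37 °C. Two-fold dilutions in MHB were combined with an equal volume of bacterial suspension (about 1 × 10^6 CFU/mL), following CLSI broth microdilution, in triplicate.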

[15] = antibiotic + D-11 (MICb/MICbc 64/4)
[16] = antibiotic alone, unit not given
[17] = with D-11 at MICbc 4, unit not given
[18] = antibiotic + D-11 (MICb/MICbc 128/4)

- MICa: MIC of the antibiotic [1, 16]: 128
- MICac: MIC of the antibiotic in the combination [1, 17]: 64
- MICa: MIC of the antibiotic [2, 16]: 128/128
- MICac: MIC of the antibiotic in the combination [2, 17]: 128/128
- MICa: MIC of the antibiotic [3, 16]: 64/64
- MICac: MIC of the antibiotic in the combination [3, 17]: 64/64
- MICa: MIC of the antibiotic [4, 16]: 128/128
- MICac: MIC of the antibiotic in the combination [4, 17]: 128/128
- MICa: MIC of the antibiotic [5, 16]: 128
- MICac: MIC of the antibiotic in the combination [5, 17]: 32
- MICa: MIC of the antibiotic [6, 16]: 128/128
- MICac: MIC of the antibiotic in the combination [6, 17]: 128/128
- MICa: MIC of the antibiotic [7, 16]: 128/128
- MICac: MIC of the antibiotic in the combination [7, 17]: 128/128
- MICa: MIC of the antibiotic [8, 16]: 128
- MICac: MIC of the antibiotic in the combination [8, 17]: 64
- MICac: the MIC for the antibiotic in the combination ([9]; with 2 μM D-11): 16 µM
- MICac: the MIC for the antibiotic in the combination ([9]; with 4 μM D-11): 4 µM
- MICa: the MIC of antibiotics ([9]; antibiotic alone): 64 µM
- MICa: MIC of the antibiotic [10, 16]: 128
- MICac: MIC of the antibiotic in the combination [10, 17]: 32
- MIC ([14]; read-out: Antibiotic sensibility (MIC) of clinical P. aeruginosa isolate AUMC-Pa-1, strain AUMC-Pa-1): > 128 µM
- MIC ([14]; read-out: Antibiotic sensibility (MIC) of clinical P. aeruginosa isolate AUMC-Pa-2, strain AUMC-Pa-2): 64 µM
- MIC ([14]; read-out: Antibiotic sensibility (MIC) of clinical P. aeruginosa isolate AUMC-Pa-3, strain AUMC-Pa-3): 128 µM
- MIC ([14]; read-out: Antibiotic sensibility (MIC) of clinical P. aeruginosa isolate AUMC-Pa-4, strain AUMC-Pa-4): 128 µM
- MIC ([14]; read-out: Antibiotic sensibility (MIC) of clinical P. aeruginosa isolate AUMC-Pa-5, strain AUMC-Pa-5): 128 µM
- MIC ([14]; read-out: Antibiotic sensibility (MIC) of clinical P. aeruginosa isolate AUMC-Pa-6, strain AUMC-Pa-6): 128 µM
- MIC ([14]; read-out: Antibiotic sensibility (MIC) of clinical P. aeruginosa isolate HM-214, strain HM-214): 128 µM
- MIC ([14]; read-out: Antibiotic sensibility (MIC) of clinical P. aeruginosa isolate NR-31040, strain NR-31040): 64 µM
- MIC ([14]; read-out: Antibiotic sensibility (MIC) of clinical P. aeruginosa isolate NR-31041, strain NR-31041): 128 µM
SMILES: CC1(C)S[C@@H]2[C@H](NC(=O)C(C(=O)O)c3ccccc3)C(=O)N2[C@H]1C(=O)O (some centres unmarked) [Carbenicillin]
- FICI [1, 15]: 0.563
- FICI [2, 15]: 1.063
- FICI [3, 18]: 1.031
- FICI [4, 18]: 1.031
- FICI ([5]; antibiotic + D-11 (MICb/MICbc 32/4)): 0.375
- FICI [6, 15]: 1.063
- FICI [7, 15]: 1.063
- FICI [8, 18]: 0.531
- FICI ([9]; antibiotic + 2 μM D-11): 0.313
- FICI ([9]; antibiotic + 4 μM D-11): 0.188
- FICI [10, 18]: 0.281
- FICI [11]: 1.031
- FICI [12]: 0.531
- FICI [13]: 1.063

Reference: publication PMC8445441, “Elucidating the mechanism by which synthetic helper peptides sensitize Pseudomonas aeruginosa to multiple antibiotics” (PLoS Pathogens, 2021)
